Several values for one entry are separate records, joined by “and”; a condition that tells them apart may be missing. Equal values may be shown once. Read-outs that look alike come from different tables or passages of the source.
Experiments:
PDE4A4 = PDE4A4 (Homo sapiens, UniProt P27815); assay: IMAP fluorescence polarisation PDE4 subtype assay; assay type: biochemical
Experimental: The binding reagent complexes with phosphate groups on nucleotide monophosphate generated from cyclic nucleotides (cAMP/cGMP) through phosphodiesterases. With fluorescence polarisation detection, binding causes a change in the rate of the molecular motion of the phosphate bearing molecule, and results in an increase in the fluorescence polarization value observed for the fluorescent label attached to the substrate. […] All assays were performed in 3% (final) DMSO for the IMAP assay.

[1] = system: Hidradenitis suppurativa (HS); assay: Phase 2a open-label trial of orismilast in HS patients; assay type: in vivo, human; conditions: for IHS4: Baseline 65; for VAS pain: Baseline 9; for DLQI: Baseline 25; for HiSQOL: Baseline 54
Excerpt: The following clinical trial may be performed using the compound of formula (I). Suitably the compound of formula (I) is orally administered to a subject in the form of a modified release composition, for example a modified release formulation described in WO 2020/148271, or as a composition described in Example 1 above. […] This is a phase 2, single-centre, prospective, open-label, single-arm, exploratory clinical trial assessing the efficacy and safety of orismilast in patients with mild, moderate, or severe HS as defined by the IHS4 scores: […] Eligible patients will receive treatment with orismilast tablets twice daily for 16 weeks. The treatment dose will be according to a predefined titration scheme and adapted to the observed tolerance of each patient. Treatment phase: […] Telephone consultation], and Week 2 [Visit 4]) (“BID” means bis in die, i.e. twice per day). Assessment of treatment efficacy will be undertaken using: • 1. Investigator assessments: • a. Counts of abscess, inflammatory nodule, and draining fistula at each on site visit day. • b. International Hidradenitis Suppurativa Severity Score System (IHS4) at each on site visit day. • c. Physician's Global Assessment of disease severity (HS-PGA) at each on site visit day. • 2. Patient assessments • a. Patients' Global Assessment of disease severity at Screening, Baseline, Week 2 (Visit 4), Week 8 (Visit 6), Week 12 (Visit 7), Week 16 (EoT, Visit 8), FU (Visit 9), and EoS (Visit 10). • b. Completion of questionnaires covering skin related quality of life DLQI at Screening, Baseline, Week 2 (Visit 4), Week 8 (Visit 6), Week 12 (Visit 7), Week 16 (EoT), FU, and EoS. • c. Completion of questionnaires covering HS specific quality of life (HiSQOL) at Screening, Baseline, Week 2 (Visit 4), Week 8 (Visit 6), Week 12 (Visit 7), Week 16 (EoT), FU, and EoS. • d. Completion of questionnaire covering skin pain (Patient's Global Assessment of Skin Pain) at each visit day. • e. Completion of questionnaire covering impact on work productivity (WPAI), anxiety and depression (HADS), fatigue (MFI-20), quality of life (EQ-5D), and McGill Pain questionnaire at Baseline, Week 16 (EoT), and EoS. • Counts of abscess, inflammatory nodule, and draining fistula. The lesions are defined in a Pan-European consensus paper ([…] et al., Dermatology. 2020; 236(5):431-438). […] An abscess is defined as a palpable lesion, with liquid content (pus), fluctuant, soft on palpation, diameter >10 mm, usually deep seated; acute, very painful phenomenon. […] A treatment target based on correlation between the changes in lesion counts and PROM (pain and HRQoL). Hidradenitis Suppurativa Clinical Response (HiSCR; a […] reduction from baseline in abscess and inflammatory nodule count and no increase in abscess or draining fistula counts) (Kimball et al., Ann Intern Med. 2012 Dec. 18; 157(12):846-55; Kimball et al., J Eur Acad Dermatol Venereol. 2016 June; 30(6):989-94). Subsequently modified for further differentiation: HiSCR75; a ≥75% reduction from baseline in abscess and inflammatory nodule count and no increase in abscess or draining fistula counts) and HiSCR-90; a ≥90% reduction from baseline in abscess and inflammatory nodule count and no increase in abscess or draining fistula counts) • International Hidradenitis Suppurativa Severity Score System (IHS4): […] The score is based on a count of inflamed lesions. The resulting IHS4 score is arrived at by the number of nodules (multiplied by 1) plus the number of abscesses (multiplied by 2) plus the number of draining tunnels (multiplied by 4). […] The six-point hidradenitis suppurativa Physician Global Assessment (PGA) ranges from clear to very severe (Kimball et al., Ann Intern Med. 2012 Dec. 18; 157(12):846-55). It is used in clinical trials to measure clinical improvement in inflammatory nodules, abscesses, and draining fistulae. The six stages are; • Clear: No inflammatory or non-inflammatory nodules. • Minimal: Only the presence of non-inflammatory nodules. • Mild: […]

[2] = target: human recombinant PDE4D protein (Homo sapiens, UniProt Q08499); assay: PDE4D scintillation proximity assay (SPA); assay type: biochemical; conditions: purified human recombinant PDE4D
Sequence of human recombinant PDE4D protein (Q08499 whole entry): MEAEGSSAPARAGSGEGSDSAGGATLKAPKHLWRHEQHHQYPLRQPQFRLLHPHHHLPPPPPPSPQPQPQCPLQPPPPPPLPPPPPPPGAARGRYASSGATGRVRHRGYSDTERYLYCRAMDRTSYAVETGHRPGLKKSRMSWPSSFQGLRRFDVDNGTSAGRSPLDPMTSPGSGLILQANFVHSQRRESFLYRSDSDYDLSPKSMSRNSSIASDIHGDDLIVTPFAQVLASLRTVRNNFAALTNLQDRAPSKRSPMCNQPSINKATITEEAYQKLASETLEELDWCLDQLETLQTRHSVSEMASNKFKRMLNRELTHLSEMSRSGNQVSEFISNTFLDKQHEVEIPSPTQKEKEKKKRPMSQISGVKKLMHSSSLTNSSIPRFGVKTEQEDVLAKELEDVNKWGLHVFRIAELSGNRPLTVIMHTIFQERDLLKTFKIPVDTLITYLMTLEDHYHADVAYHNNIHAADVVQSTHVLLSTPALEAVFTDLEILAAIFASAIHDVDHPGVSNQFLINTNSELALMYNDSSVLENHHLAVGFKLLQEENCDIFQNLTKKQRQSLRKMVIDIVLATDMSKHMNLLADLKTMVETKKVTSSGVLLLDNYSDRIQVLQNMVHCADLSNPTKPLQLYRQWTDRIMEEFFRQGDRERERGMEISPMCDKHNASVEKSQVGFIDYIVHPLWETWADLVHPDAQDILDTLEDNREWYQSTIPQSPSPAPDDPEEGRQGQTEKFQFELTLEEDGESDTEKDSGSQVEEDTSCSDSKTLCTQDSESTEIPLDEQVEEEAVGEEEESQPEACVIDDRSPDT
Experimental: PDE4 enzymatic activity was measured in a scintillation proximity assay using purified human recombinant PDE4D protein.

[3] = system: TNF-α secretion from human whole blood; assay: Whole blood TNF-α secretion assay (LPS or SEB); assay type: cell-based; conditions: for times more potent than Roflumilast / times more potent than apremilast: mean EC50 values; for Emax / EC50: Homo sapiens; for Emax: read-out: Emax

Sequence of PDE4A4 (P27815 whole entry): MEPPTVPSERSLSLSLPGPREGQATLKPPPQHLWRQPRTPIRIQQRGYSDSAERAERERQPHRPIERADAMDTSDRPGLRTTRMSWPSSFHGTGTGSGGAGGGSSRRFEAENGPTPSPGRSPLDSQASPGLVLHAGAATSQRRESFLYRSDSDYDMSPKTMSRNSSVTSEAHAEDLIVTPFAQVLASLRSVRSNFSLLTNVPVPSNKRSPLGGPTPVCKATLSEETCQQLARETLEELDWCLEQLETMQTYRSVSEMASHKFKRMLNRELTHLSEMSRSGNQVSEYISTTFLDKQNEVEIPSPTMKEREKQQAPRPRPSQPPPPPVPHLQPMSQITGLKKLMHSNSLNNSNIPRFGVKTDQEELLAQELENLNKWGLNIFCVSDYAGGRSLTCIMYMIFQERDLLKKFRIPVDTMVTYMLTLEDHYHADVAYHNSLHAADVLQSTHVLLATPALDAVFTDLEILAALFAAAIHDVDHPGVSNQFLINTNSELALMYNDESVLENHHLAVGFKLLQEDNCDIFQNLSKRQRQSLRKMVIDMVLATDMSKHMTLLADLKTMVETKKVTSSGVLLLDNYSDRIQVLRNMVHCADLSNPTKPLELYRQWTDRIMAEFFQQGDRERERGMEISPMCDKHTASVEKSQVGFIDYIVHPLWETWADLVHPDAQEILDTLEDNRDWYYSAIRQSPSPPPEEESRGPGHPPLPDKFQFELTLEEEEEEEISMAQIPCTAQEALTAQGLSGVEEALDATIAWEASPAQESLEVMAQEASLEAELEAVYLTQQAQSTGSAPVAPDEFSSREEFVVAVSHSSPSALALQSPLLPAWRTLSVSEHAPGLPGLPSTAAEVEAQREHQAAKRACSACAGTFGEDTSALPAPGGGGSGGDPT

O=C(Cc1c(Cl)c[n+]([O-])cc1Cl)c1ccc(OC(F)F)c2c1OC1(CCS(=O)(=O)CC1)O2 [Compound (I), 2-(3,5-Dichloro-1-oxido-pyridine-4-yl)-1-(7-difluoro-methoxy-2′,3′,5′,6′-tetrahydro-spiro[1,3-benzodioxole-2,4′-(4H)-thiopyran-1′,1′-dioxide]-4-yl)ethanone]
inhibition at 0.1 µM (PDE4A4; compound 10^−7 M): 47% | inhibition at 0.01 µM (PDE4A4; compound 10^−8 M): 24% | inhibition at 0.001 µM (PDE4A4; compound 10^−9 M): 0% | inhibition at 0.0001 µM (PDE4A4; compound 10^−10 M): 0% | clinical response (in words) ([1]; first four HS patients enrolled, trial ongoing): initial signs of improvement in HS | clinical response (in words) ([1]; one patient refractory to conventional HS therapies): immediate clinical improvement with reduction of tissue edema and pain, as well as increased mobility | IHS4 ([1]; one patient, severe HS, Day 14, 10 to 30 mg twice daily): 61 | VAS pain ([1]; one patient, Day 14): 7 | DLQI ([1]; one patient, Day 14): 23 | HiSQOL ([1]; one patient, Day 14): 42 | VAS pain ([1]; one patient, Day 57): 6 | DLQI ([1]; one patient, Day 57): 22 | HiSQOL ([1]; one patient, Day 57): 46 | IHS4 ([1]; one patient, Day 57, 30 mg twice daily): 62 | thrombocytes ([1]; one patient, at day 14, baseline 402): 365 | patient's global assessment ([1]; one patient, day 15): very severe | patient's global assessment ([1]; one patient, day 57): severe | leukocytes ([1]; one patient, day 57, baseline 14.0): 11.5 | C-reactive protein ([1]; one patient, day 57, baseline 89): 84 | erythrocyte sedimentation rate ([1]; one patient, day 57, baseline 94): 88 | physician's global assessment of disease activity ([1]; one patient, during treatment to day 57): very severe | EC50 [2]: 0.0147 µM | times more potent than Roflumilast ([3]; (M)): 1.7 times | times more potent than Roflumilast ([3]; (ng/mL)): 1.4 times | Emax ([3]; 24 h, LPS 1 μg/mL, 24 hours, donor 1, Emax defined as TNF-α level in un-stimulated wells): 76% | EC50 ([3]; 24 h, LPS 1 μg/mL, 24 hours, donor 1, read-out: EC50): 0.00534 µM | EC50 ([3]; 24 h, LPS 1 μg/mL, 24 hours, donor 2, read-out: EC50): 0.0184 µM | Emax ([3]; 24 h, LPS 1 μg/mL, 24 hours, donor 2): 79% | EC50 ([3]; 24 h, SEB 1 μg/mL, 24 hours, donor 1, read-out: EC50): 0.00493 µM | Emax ([3]; 24 h, SEB 1 μg/mL, 24 hours, donor 1): 97% | EC50 ([3]; 24 h, SEB 1 μg/mL, 24 hours, donor 2, read-out: EC50): 0.0249 µM | Emax ([3]; 24 h, SEB 1 μg/mL, 24 hours, donor 2): 66% | EC50 ([3]; 48 h, LPS 1 μg/mL, 48 hours, donor 1, read-out: EC50): 0.0121 µM | Emax ([3]; 48 h, LPS 1 μg/mL, 48 hours, donor 1): 71% | EC50 ([3]; 48 h, LPS 1 μg/mL, 48 hours, donor 2, read-out: EC50): 0.0198 µM | Emax ([3]; 48 h, LPS 1 μg/mL, 48 hours, donor 2): 80% | EC50 ([3]; 48 h, SEB 1 μg/mL, 48 hours, donor 1, read-out: EC50): 0.00466 µM | Emax ([3]; 48 h, SEB 1 μg/mL, 48 hours, donor 1): 98% | EC50 ([3]; 48 h, SEB 1 μg/mL, 48 hours, donor 2, read-out: EC50): 0.0478 µM | Emax ([3]; 48 h, SEB 1 μg/mL, 48 hours, donor 2): 83% | EC50 ([3]; mean of 8 determinations (LPS and SEB, 24 and 48 hours, 2 donors), read-out: Geometric mean of EC50 values across different assay parameters): 12.6 nM and 0.00643 µg/mL | Potency compared with roflumilast-N-oxide (in words) ([3]; LPS and SEB-induced TNF-α secretion): equipotent to—or slightly more potent than | times more potent than apremilast ([3]; based on molar concentrations): 23 times | times more potent than apremilast ([3]; based on ng/mL concentrations): 21 times

From patent publication US20250268876A1, “TREATMENT OF HIDRADENITIS SUPPURATIVA WITH ORISMILAST” (UNION THERAPEUTICS A/S, priority 2021, published 2025)
